Results taken from ChEMBL document CHEMBL1155772, “Peroxide bond-dependent antiplasmodial specificity of artemisinin and OZ277 (RBx11160)” (Antimicrob Agents Chemother, 2007).
≈ marks a conversion by molar mass, not a printed value. Calls of active or inactive are those of the source. The calls are words filed in the database; no cut-off is given here.

Experiments:
[1] = system: Neospora caninum; test: Antimicrobial activity against Neospora caninum up to 1 ug/ml; type: functional, organism-based
[2] = system: Plasmodium falciparum; test: Antiplasmodial activity against Plasmodium falciparum K1; type: functional, organism-based
[3] = system: Plasmodium falciparum; test: Antiplasmodial activity against Plasmodium falciparum NF54; type: functional, organism-based
[4] = system: Trypanosoma brucei rhodesiense; test: Antitrypanosomal activity against Trypanosoma brucei rhodesiense STIB900; type: functional, organism-based
[5] = system: Trypanosoma cruzi; test: Antitrypanosomal activity against Trypanosoma cruzi Tulahuen C4; type: functional, organism-based
[6] = system: Leishmania donovani; test: Antileishmanial activity against Leishmania donovani MHOM-ET-67/L82 amastigotes by axenic assay; type: functional, organism-based
[7] = system: Giardia intestinalis; test: Antimicrobial activity against Giardia duodenalis WB; type: functional, organism-based
[8] = system: Giardia intestinalis; test: Antimicrobial activity against Giardia duodenalis G1; type: functional, organism-based
[9] = system: Babesia divergens; test: Antimicrobial activity against Babesia divergens 1903B; type: functional, organism-based
[10] = system: Babesia divergens; test: Antimicrobial activity against Babesia divergens 4201; type: functional, organism-based
[11] = system: Leishmania major; test: Antileishmanial activity against Leishmania major amastigotes; type: functional, organism-based
[12] = system: Leishmania donovani; test: Antileishmanial activity against Leishmania donovani promastigotes; type: functional, organism-based
[13] = system: Toxoplasma gondii; test: Antimicrobial activity against Toxoplasma gondii in normal human foreskin fibroblasts; type: functional, organism-based
[14] = system: Pneumocystis carinii; test: Antimicrobial activity against Pneumocystis carinii at 0.14 ug/ml in feeder layer cells; type: functional
[15] = Inhibition of Plasmodium falciparum ATP6

| Compound | Activity [1] | IC50 [2] [µg/mL] | IC50 [3] [µg/mL] | IC50 [4] [µg/mL] | IC50 [5] [µg/mL] | IC50 [6] [µg/mL] | IC50 [7] [µg/mL] | IC50 [8] [µg/mL] | IC50 [9] [µg/mL] | IC50 [10] [µg/mL] | IC50 [11] [µg/mL] | IC50 [12] [µg/mL] | IC50 [13] [µg/mL] | inhibition at 0.14 µg/mL [14] [%] | IC50 [15] [µM] |
| --- | --- | --- | --- | --- | --- | --- | --- | --- | --- | --- | --- | --- | --- | --- | --- |
| CC(C)(N)CNC(=O)CC1CC[C@]2(CC1)OC[C@]1(O2)C2CC3CC(C2)CC1C3 (stereo partly specified) | inactive | 2.5 (≈ 6.4 µM) | 4.9 (≈ 12.5 µM) | 0.77 (≈ 1.97 µM) | 13 (≈ 33.3 µM) | 20 (≈ 51.2 µM) | 38 (≈ 97.3 µM) | 18 (≈ 46.1 µM) | 6.7 (≈ 17.2 µM) | 7.5 (≈ 19.2 µM) | – | – | – | – | – |
| CCCSc1ccc2[nH]c(NC(=O)OC)nc2c1 [ALBENDAZOLE] | – | – | – | – | – | – | 0.019 (≈ 0.0716 µM) | 0.018 (≈ 0.0678 µM) | – | – | – | – | – | – | – |
| C[C@@H]1CC[C@H]2[C@@H](C)C(=O)O[C@@H]3O[C@@]4(C)CC[C@@H]1[C@]32OO4 [ARTEMISININ] | inactive | 0.002 (≈ 0.00708 µM) | 0.004 (≈ 0.0142 µM) | 25 (≈ 88.5 µM) | > 30 | 8.8 (≈ 31.2 µM) | 65 (≈ 230 µM) | 49 (≈ 174 µM) | > 10 | > 10 | 8 (≈ 28.3 µM) | 8 (≈ 28.3 µM) | 2.3 (≈ 8.15 µM) | 55 | 0.079 |
| O=C1C(O)=C([C@H]2CC[C@H](c3ccc(Cl)cc3)CC2)C(=O)c2ccccc21 [ATOVAQUONE] | – | – | – | – | – | – | – | – | 0.0091 (≈ 0.0248 µM) | 0.0087 (≈ 0.0237 µM) | – | – | – | – | – |
| O=C(Cn1ccnc1[N+](=O)[O-])NCc1ccccc1 [BENZNIDAZOLE] | – | – | – | – | 0.14 (≈ 0.538 µM) | – | – | – | – | – | – | – | – | – | – |
| C[C@@H]1CC[C@H]2[C@@H](C)C(=O)O[C@@H]3O[C@@]4(C)CC[C@@H]1[C@]32O4 [DEOXYARTEMISININ] | inactive | > 10 | > 10 | 34 (≈ 128 µM) | > 30 | > 30 | 91 (≈ 342 µM) | 28 (≈ 105 µM) | > 10 | > 10 | – | – | – | – | – |
| CCCCCCCCCCCCCCCCOP(=O)([O-])OCC[N+](C)(C)C [MILTEFOSINE] | – | – | – | – | – | 0.2 (≈ 0.491 µM) | – | – | – | – | – | – | – | – | – |
| CC(C)(N)CNC(=O)C[C@H]1CC[C@]2(CC1)OO[C@]1(O2)C2CC3CC(C2)CC1C3 [OZ277] | inactive | – | 0.00091 (≈ 0.00232 µM) | 0.56 (≈ 1.43 µM) | 9.5 (≈ 24.2 µM) | 24 (≈ 61.1 µM) | 41 (≈ 104 µM) | 49 (≈ 125 µM) | > 10 | > 10 | – | – | – | – | 7.7 |
